Laboratory results: US9822382B2, “Process for making ethanol by fermentation” (Evonik Degussa GmbH, priority 2014, dated 2017)

Tests used:
Rod bacteria = Rod bacteria cell count and infection rate in fermented mash, sugar cane ethanol production mill trial; assay type: cell-based
Experimental: (§1) Bacterial and yeast cell counts, yeast cell viability and yeast flocculation were determined as described in A. J. Oliveira et al., Curso de treinamento em microbiologia, Piracicaba: FERMENTEC and ESALQ, 1996 and in A. J. Oliveira et al., Métodos para o controle microbiológico na produção de açúcar e álcool, Piracicaba: FERMENTEC, FEALQ and ESALQ, 1996. Bacterial infection rates were calculated as the ratio of the rod bacteria cell count and the yeast cell count.
Examples 9 to 11 were carried out in a sugar cane ethanol production mill operating 6 fermenters in fed-batch. The fermented mash is sent to a centrifuge which separates yeast cream with an average yeast content of 63% by weight. The yeast cream is diluted with water to an average yeast content of 27% by weight and transferred to a stirred yeast cream recovery tank. Diluted yeast cream is passed continuously from this tank to a stirred yeast treatment tank at a rate of from 42 to 127 m^3/h. Sulfuric acid is added to the yeast treatment tank to maintain a pH in the range from 1.8 to 2.8. The average residence time in both the yeast cream recovery tank and the yeast treatment tank is in the range of from 1.3 to 4.0 h. Fermentation is carried out by charging the acidified yeast concentrate to a fermenter over a 1 to 2 h period, followed by feeding sugar cane mash with a sugar content of 22° Brix and a pH of 5.8 to the fermenter over a 6 h period. Fermentation is continued for a further 2 h without feed and the fermented mash is sent to a centrifuge. Bacterial contamination was monitored by microbiological analysis of samples of fermented mash taken before feeding the mash to a centrifuge. Samples were analyzed for bacterial and yeast cell counts and for yeast cell viability and yeast flocculation.
In example 9, equilibrium peroxyacetic acid PERACLEAN® 15 of Evonik was dosed to the yeast treatment tank for 28 h in an amount of 60 ppm during days 3 and 4 of the experiment. pH in the yeast treatment tank was maintained in the range of from 1.84 to 2.02.
In example 10, equilibrium peroxyacetic acid PERACLEAN® 15 of Evonik was dosed to the yeast treatment tank for 43 h during days 6 and 7 of the experiment in an amount that was lowered stepwise from 49 ppm to 20 ppm. pH in the yeast treatment tank was maintained in the range of from 1.97 to 2.60.
In example 11, equilibrium peroxyacetic acid PERACLEAN® 15 of Evonik was dosed to the yeast cream recovery tank on days 2 and 3 of the experiment for 13 h in an amount of 50 ppm, followed by dosing for 28 h in an amount of 30 ppm. During this period the pH in the yeast cream recovery tank was in the range of from 3.0 to 3.3. Then dosing of peroxyacetic acid to the yeast cream recovery tank was stopped and peroxyacetic acid was dosed to the yeast treatment tank for 18 h in an amount of 30 ppm. During this period the pH in the yeast treatment tank was about 2.0.

Yeast = Yeast cell count and yeast cell viability, laboratory treatment of yeast cream and fermentation; assay type: cell-based; settings: for viability at 50 µg/mL / viability at 50 ppm / viability at 60 ppm: Saccharomyces cerevisiae
Experimental: as §1
The examples were carried out with a yeast cream obtained by separating yeast from a fermented sugar cane mush from a sugar cane ethanol production mill operating with batch fermentation and yeast recycle. The yeast cream was diluted with water to a yeast cell content of about 24% by weight and the pH of the diluted yeast cream was adjusted to a value of 1.8 by adding sulfuric acid.
Then 322 ml of acidified diluted yeast cream were placed in a vessel and 678 ml of cane must having a pH of 6.2 were added with mixing in 5 portions with 1 h intervals between additions. Fermentation of the cane must with the acidified diluted yeast cream was carried out at 33° C. for 21 h. The final pH of the fermented mash was 4.8.
In example 2, equilibrium peroxyacetic acid PERACLEAN® 15 of Evonik was added to the acidified diluted yeast cream in an amount of 50 mg/l and the resulting treated yeast concentrate was kept at 30° C. for 1.7 hours before it was analyzed microbiologically. Thereafter, fermentation was carried out as in example 1.
Examples 1 and 2 were repeated without adding peroxyacetic acid in example 3 and with addition of equilibrium peroxyacetic acid PERACLEAN® 15 in an amount of 60 mg/l peroxyacetic acid in example 4. The treated yeast cream was kept at 30° C. for 2 hours before it was analyzed microbiologically and fermentation was started.
The examples were carried out with a yeast cream obtained by separating yeast from a fermented sugar cane mush from a sugar cane ethanol production mill that operates with fed-batch fermentation and yeast recycle. The yeast cream was diluted with water to a yeast cell content of about 27% by weight. The pH of the diluted yeast cream was 4.0.
In example 6, equilibrium peroxyacetic acid PERACLEAN® 15 of Evonik was added to the diluted yeast cream in an amount of 50 mg/l and the resulting treated yeast concentrate was kept at 30° C. for 2.3 hours before it was analyzed microbiologically.
In example 8, the pH of the diluted yeast cream was adjusted as in example 7, equilibrium peroxyacetic acid PERACLEAN® 15 of Evonik was added to the acidified diluted yeast cream in an amount of 50 mg/l and the resulting treated yeast concentrate was kept at 30° C. for 2.0 hours before it was analyzed microbiologically.

[1] = Example 9, fermenter 2, day 3, 60 ppm to yeast treatment tank during days 3 and 4, pH 1.84 to 2.02
[2] = Example 9, fermenter 2, day 4, 60 ppm to yeast treatment tank during days 3 and 4, pH 1.84 to 2.02
[3] = Example 9, fermenter 2, day 5, after addition (60 ppm, days 3 and 4) was stopped
[4] = Example 9, fermenter 4, day 3, 60 ppm to yeast treatment tank during days 3 and 4, pH 1.84 to 2.02
[5] = Example 9, fermenter 4, day 4, 60 ppm to yeast treatment tank during days 3 and 4, pH 1.84 to 2.02
[6] = Example 9, fermenter 4, day 6, after addition (60 ppm, days 3 and 4) was stopped
[7] = Example 10, fermenter 2, day 6, 49 ppm lowered stepwise to 20 ppm to yeast treatment tank during days 6 and 7, pH 1.97 to 2.60
[8] = Example 10, fermenter 2, day 7, 49 ppm lowered stepwise to 20 ppm to yeast treatment tank during days 6 and 7, pH 1.97 to 2.60
[9] = Example 10, fermenter 2, day 8, after dosing during days 6 and 7
[10] = Example 10, fermenter 2, day 9, after dosing during days 6 and 7
[11] = Example 10, fermenter 3, day 6, 49 ppm lowered stepwise to 20 ppm to yeast treatment tank during days 6 and 7, pH 1.97 to 2.60
[12] = Example 10, fermenter 3, day 7, 49 ppm lowered stepwise to 20 ppm to yeast treatment tank during days 6 and 7, pH 1.97 to 2.60
[13] = Example 10, fermenter 3, day 8, after dosing during days 6 and 7
[14] = Example 10, fermenter 3, day 9, after dosing during days 6 and 7
[15] = Example 11, fermenter 3, day 2, 50 ppm then 30 ppm to yeast cream recovery tank on days 2 and 3, pH 3.0 to 3.3
[16] = Example 11, fermenter 3, day 4, after recovery tank dosing, 30 ppm to yeast treatment tank for 18 h, pH about 2.0
[17] = Example 11, fermenter 3, day 6, after the dosing periods
[18] = Example 11, fermenter 6, day 2, 50 ppm then 30 ppm to yeast cream recovery tank on days 2 and 3, pH 3.0 to 3.3
[19] = Example 11, fermenter 6, day 3, 50 ppm then 30 ppm to yeast cream recovery tank on days 2 and 3, pH 3.0 to 3.3
[20] = Example 11, fermenter 6, day 5, after the dosing periods
[21] = Example 2, 50 ppm, pH 1.8, fermented mash after 21 h
[22] = Example 2, 50 ppm, pH 1.8, treated yeast concentrate, 30° C. 1.7 hours
[23] = Example 4, 60 ppm, pH 1.8, fermented mash after 19 h
[24] = Example 4, 60 ppm, pH 1.8, treated yeast concentrate, 30° C. 2 hours
[25] = Example 6, 50 mg/l, no pH adjustment (pH 4.17), treated yeast concentrate, 30° C. 2.3 hours

Which “Infection rate in %” value (Rod bacteria; [1]) does the source give for `CC(=O)OO` [peroxyacetic acid] here?
Its value is 11%.

What about the Rod bacteria cells/ml (Rod bacteria; [1]) of the same molecule?
The Rod bacteria cells/ml was 28*10^6 cells/ml.

And the “Infection rate in %” value (Rod bacteria; [2])?
Its value is 10%.

And the Rod bacteria cells/ml (Rod bacteria; [2])?
The Rod bacteria cells/ml was 39*10^6 cells/ml.

What about the “Infection rate in %” value (Rod bacteria; [3]) of the same molecule?
The value was 18%.

And the Rod bacteria cells/ml (Rod bacteria; [3])?
The Rod bacteria cells/ml was 51*10^6 cells/ml.

What about the “Infection rate in %” value (Rod bacteria; [4]) of the same molecule?
Its value is 11%.

What about the Rod bacteria cells/ml (Rod bacteria; [4]) of the same molecule?
Its Rod bacteria cells/ml is 53*10^6 cells/ml.

And the “Infection rate in %” value (Rod bacteria; [5])?
Its value is 3%.

And the Rod bacteria cells/ml (Rod bacteria; [5])?
The Rod bacteria cells/ml was 20*10^6 cells/ml.

What about the “Infection rate in %” value (Rod bacteria; [6]) of the same molecule?
Its value is 22%.

And the Rod bacteria cells/ml (Rod bacteria; [6])?
The Rod bacteria cells/ml was 57*10^6 cells/ml.

What about the “bacterial contamination and yeast flocculation” value (Rod bacteria; Example 9, upon addition of 60 ppm to yeast treatment tank, return when addition is stopped) of the same molecule?
Its value is “reduced”.

What about the “control of bacterial contamination and yeast flocculation” value (Rod bacteria; Example 10, continuous addition of 20 ppm to the acidified yeast concentrate) of the same molecule?
Its value is “sufficient to control bacterial contamination and avoid yeast flocculation”.

And the “Infection rate in %” value (Rod bacteria; [7])?
The value was 2.8%.

What about the Rod bacteria cells/ml (Rod bacteria; [7]) of the same molecule?
Its Rod bacteria cells/ml is 9.6*10^6 cells/ml.

And the “Infection rate in %” value (Rod bacteria; [8])?
The value was 0.5%.

And the Rod bacteria cells/ml (Rod bacteria; [8])?
Its Rod bacteria cells/ml is 1.4*10^6 cells/ml.

And the “Infection rate in %” value (Rod bacteria; [9])?
The value was 8.1%.

What about the Rod bacteria cells/ml (Rod bacteria; [9]) of the same molecule?
The Rod bacteria cells/ml was 24*10^6 cells/ml.

What about the “Infection rate in %” value (Rod bacteria; [10]) of the same molecule?
The value was 11%.

What about the Rod bacteria cells/ml (Rod bacteria; [10]) of the same molecule?
The Rod bacteria cells/ml was 29*10^6 cells/ml.

What about the “Infection rate in %” value (Rod bacteria; [11]) of the same molecule?
Its value is 1.5%.

And the Rod bacteria cells/ml (Rod bacteria; [11])?
Its Rod bacteria cells/ml is 3.0*10^6 cells/ml.

And the “Infection rate in %” value (Rod bacteria; [12])?
Its value is 0.2%.

What about the Rod bacteria cells/ml (Rod bacteria; [12]) of the same molecule?
Its Rod bacteria cells/ml is 0.7*10^6 cells/ml.

What about the “Infection rate in %” value (Rod bacteria; [13]) of the same molecule?
Its value is 4.4%.

And the Rod bacteria cells/ml (Rod bacteria; [13])?
The Rod bacteria cells/ml was 13*10^6 cells/ml.

What about the “Infection rate in %” value (Rod bacteria; [14]) of the same molecule?
Its value is 7.5%.

What about the Rod bacteria cells/ml (Rod bacteria; [14]) of the same molecule?
The Rod bacteria cells/ml was 22*10^6 cells/ml.

And the “effectiveness of addition depending on pH of yeast concentrate” value (Rod bacteria; Example 11, dosing at pH 3.0 to 3.3 versus about 2.0)?
The value was “effective only for an acidified yeast concentrate at a pH of less than 3.0”.

And the “Infection rate in %” value (Rod bacteria; [15])?
Its value is 11%.

What about the Rod bacteria cells/ml (Rod bacteria; [15]) of the same molecule?
The Rod bacteria cells/ml was 32*10^6 cells/ml.

What about the “Infection rate in %” value (Rod bacteria; [16]) of the same molecule?
Its value is 2%.

And the Rod bacteria cells/ml (Rod bacteria; [16])?
Its Rod bacteria cells/ml is 8.4*10^6 cells/ml.

And the “Infection rate in %” value (Rod bacteria; [17])?
The value was 18%.

What about the Rod bacteria cells/ml (Rod bacteria; [17]) of the same molecule?
Its Rod bacteria cells/ml is 24*10^6 cells/ml.

What about the “Infection rate in %” value (Rod bacteria; [18]) of the same molecule?
The value was 5%.

And the Rod bacteria cells/ml (Rod bacteria; [18])?
The Rod bacteria cells/ml was 23*10^6 cells/ml.

What about the “Infection rate in %” value (Rod bacteria; [19]) of the same molecule?
Its value is 5%.

What about the Rod bacteria cells/ml (Rod bacteria; [19]) of the same molecule?
Its Rod bacteria cells/ml is 14*10^6 cells/ml.

And the “Infection rate in %” value (Rod bacteria; [20])?
Its value is 10%.

What about the Rod bacteria cells/ml (Rod bacteria; [20]) of the same molecule?
The Rod bacteria cells/ml was 25*10^6 cells/ml.

And the Yeast cells/ml (Yeast; [21])?
The Yeast cells/ml was 230*10^6 cells/ml.

And the Yeast cells/ml (Yeast; [22])?
Its Yeast cells/ml is 550*10^6 cells/ml.

What about the Yeast cells/ml (Yeast; [23]) of the same molecule?
Its Yeast cells/ml is 180*10^6 cells/ml.

What about the Yeast cells/ml (Yeast; [24]) of the same molecule?
The Yeast cells/ml was 710*10^6 cells/ml.

And the Yeast cells/ml (Yeast; [25])?
Its Yeast cells/ml is 820*10^6 cells/ml.

What about the Yeast cells/ml (Yeast; Example 8, 50 mg/l, pH adjusted to 2.0 with sulfuric acid (pH 2.40), treated yeast concentrate, 30° C. 2.0 hours) of the same molecule?
Its Yeast cells/ml is 830*10^6 cells/ml.

What about the viability at 50 µg/mL (Yeast; pH 2.4, Example 8, 50 mg/l, pH adjusted to 2.0 with sulfuric acid (pH 2.40), treated yeast concentrate, 30° C. 2.0 hours) of the same molecule?
Its viability at 50 µg/mL is 88%.

What about the viability at 50 ppm (Yeast; [21]) of the same molecule?
The viability at 50 ppm was 81%.

And the viability at 50 ppm (Yeast; [22])?
Its viability at 50 ppm is 73%.

What about the viability at 60 ppm (Yeast; [23]) of the same molecule?
Its viability at 60 ppm is 80%.

What about the viability at 60 ppm (Yeast; [24]) of the same molecule?
The viability at 60 ppm was 83%.

And the viability at 50 µg/mL (Yeast; [25])?
Its viability at 50 µg/mL is 86%.

And the “yeast viability in the fermentation” value (Yeast; treatment of the yeast concentrate at pH 1.8 before using it for the fermentation)?
Its value is “does not affect yeast viability”.
